Reference: patent US20190269771A1, “PEPTIDE MIMOTOPE THAT INDUCES AN IMMUNE RESPONSE AGAINST MYCOBACTERIUM TUBERCULOSIS LIPOARABINOMANNAN (LAM)” (priority 2017, published 2019)

Key:
[1] = system: rabbit polyclonal anti-LAM antibody; experiment: Peptide ELISA binding assay with rabbit polyclonal anti-LAM antibody; conditions: for OD values, binding of rabbit polyclonal anti-LAM antibody by ELISA: coating 10 μg/ml
Description: The ELISA plate wells were coated with by adding each peptide (2 μg in 0.1M NaHCO3, pH 8.6) and incubating overnight at 4° C. After overnight incubation, plates were blocked with BSA (5 mg/ml) for 1 hour at 4° C. For controls, wells were coated with same amount of LAM or BSA. After washing with TBST, diluted 143 anti-LAM antibodies were added to the ELISA plate and incubated at room temperature for 1 hour. Plates were washed with TBST and HRP-conjugated secondary antibodies were added and incubated for 1 hour. After washing 3 times with TBST, 50 μl of the 1-Step™ Ultra TMB-ELISA (Thermo Scientific Co, Ltd) substrates was added in the dark. After color development, 50 μl of 2M sulfuric acid was added to stop the reaction and absorbance was measured at 450 nm.

[2] = system: two monoclonal antibodies against M. tuberculosis lipoarabinomannan (LAM); experiment: Binding of recombinant M13 phages displaying the peptides to the anti-LAM mAbs; conditions: peptide displayed on the g3p minor coat protein of recombinant M13 phage
[3] = system: Mouse anti-LAM antibodies; experiment: ELISA with serum from LAM vaccinated mice against various antigens; assay type: binding; conditions: Swiss-Webster mice vaccinated with LAM combined with alum; FIG. 2D
Description: To perform ELISAS, 96-well ELISA plates (Greiner Bio-One Catalogue #655-001) were coated with 10 μg of corresponding coating antigens: HS peptide, HSSR peptide, Baculovirus, SG peptide, SGSR peptide, or LAM resuspended in coating buffer (0.1M NaHCO3, pH 8.6). After overnight coating at 4° C., blocking (5% skim milk in PBS) was performed for 1 hour at room temperature. After washing 3 times with washing buffer (0.01% Tween-20 in PBS), mouse serum was added to the appropriate wells and binding proceeded at room temperature for 1 hour. […] After incubating for 1 hour at room temperature, the plate was washed 3 times with TBST and 50 μl 179 of the 1-Step™ Ultra TMB180 ELISA substrate (Thermo Scientific) was added. 50 ul of 2M sulfuric acid was then added to stop the reaction and absorbance was measured at 450 nm.

CISLTEWSMWYRH [Peptide P8, previously published LAM mimotope peptide, reference compound]
detection of KLH-conjugated peptide by rabbit anti-LAM polyclonal antibody above control ([1]; peptides conjugated to KLH vs scramble control, only at the 1:1000 dilution, FIG. 1B-E): could be specifically detected

HSFKWLDSPRLR [HS peptide]
OD values, binding of rabbit polyclonal anti-LAM antibody by ELISA ([1]; HS peptide experiment, FIG. 2B): 0.45
binding affinity with both mAbs [2]: strong binding affinity

KLH alone: keyhole limpet hemocyanin carrier protein [reference compound]
binding by serum from LAM vaccinated mice [3]: not

SGVYKVAYDWQH [SG peptide]
OD values, binding of rabbit polyclonal anti-LAM antibody by ELISA ([1]; SG peptide experiment, FIG. 2C): 0.32
binding affinity with both mAbs [2]: strong binding affinity
